Measured values from US11679098B2, “Methods for treating diseases” (UNIVERSITY OF LOUISVILLE RESEARCH FOUNDATION, INC., priority 2018, dated 2023).

Key:
[1] = tested on: A549 (lung adenocarcinoma); experiment: MTT antiproliferative assay in A549 cells; type: cell-based, human; conditions: Homo sapiens, 72 hrs treatment, MTT
Procedure: (§1) Cell culture. A549 and IMR-90 cells were purchased from the American Type Culture Collection (ATCC), while HOP-62 and HOP-92 were obtained from the cell line repository at the National Cancer Institute. Cells were grown in the appropriate medium supplemented with 10% fetal bovine serum (FBS, Life Technologies, Grand Island, N.Y.), 62.5 μg/mL penicillin and 100 μg/mL streptomycin (Life Technologies) in a humidified incubator at 37° C. with 5% CO2. The media were as follows: Dulbecco's modified Eagle's medium (DMEM, Life Technologies) for A549 cells; RPMI 1640 (Life Technologies) for HOP-62 and HOP-92 cells; Eagle's minimal essential medium (EMEM) with Eagle's balanced salt solution (EBSS), 2 mM L-glutamine, 1500 mg/L sodium bicarbonate (Lonza, Walkersville, Md.), supplemented with 1 mM sodium pyruvate (Life Technologies) and non-essential amino acids (Life Technologies) for IMR-90 cells. Cell lines were verified with a 9-marker short tandem repeat profile and inter-species contamination test (Idexx BioResearch), although A549 cells utilized in proliferation assays were missing the Y allele at the amelogenin marker.
(§2) Cell proliferation & viability assays. Anti-proliferative activity of XB05 and other compounds was evaluated using a previously published 3-(4,5-dimethylthiazol-2-yl)-2,5-diphenyltetrazolium bromide (MTT) assay protocol (MORGAN “Tetrazolium (MTT) assay for cellular viability and activity” Methods Mol Biol. (1998) Vol. 79, pp. 179-83, which is herein incorporated by reference in its entirety, BATES et al. “Antiproliferative activity of G-rich oligonucleotides correlates with protein binding” J Biol Chem. (1999) Vol. 274, No. 37, pp. 26369-26377, which is herein incorporated by reference in its entirety, SALIPUR et al. “A novel small molecule that induces oxidative stress and selectively kills malignant cells” Free Radic Biol Med. (2014) Vol. 68, pp. 110-121, which is herein incorporated by reference in its entirety). Cells were seeded in quadruplicate wells in 96-well plates and allowed to adhere overnight. […] After 72 hrs of treatment with XB05 or other compounds, MTT (Sigma, St. Louis, Mo.) was added for 4 hrs prior to cell lysis. Each assay was performed in at least triplicate.
(§3) XB05 and related compounds were assessed for anti-proliferative activity in malignant (A549) and non-malignant (IMR-90) cells (Table A2).

[2] = tested on: IMR-90 (non-malignant lung fibroblasts); experiment: MTT antiproliferative assay in IMR-90 cells; type: cell-based; conditions: Homo sapiens, 72 hrs treatment, read-out: MTT Antiproliferative Activity - IC50 (μM) IMR0 (non-malignant lung fibroblasts)
Procedure: as §1, §2, §3

[3] = DTNB assay for reactivity with free thiols, reduced glutathione; type: physicochemical; conditions: 0.25 mM reduced glutathione, 30 min at 37° C., pH 8.0
Procedure: (§4) Dithiobis-2-nitrobenzioc acid (DTNB) assay for free sulfhydryls. Similar to previously described in SALIPUR et al. “A novel small molecule that induces oxidative stress and selectively kills malignant cells” Free Radic Biol Med. (2014) Vol. 68, pp. 110-121, which is herein incorporated by reference in its entirety, reactivity with free sulfhydryls was evaluated using DTNB (Sigma). Briefly, a 4× solution of DTNB (6 mM DTNB, 50 mM sodium acetate in 100 mM Tris-HCl, pH 8.0) and solutions of 0.5 mM cysteine (Sigma) and reduced glutathione (GSH, Sigma) in 100 mM Tris-HCl, pH 8.0 were freshly prepared. The 200 mM stock solutions of XB05, other compounds, diethylmaleate (Sigma), and maleimide (Sigma) were prepared in 100% DMSO, and subsequently diluted to 2× working solutions in 100 mM Tris-HCl, pH 8.0. Thiol compounds (final concentration 0.25 mM) and thiol-reactive compounds (final concentrations 0.04-5 mM) or vehicle were added in duplicate to a 96-well plate and incubated for 30 min at 37° C. DTNB solution was then added to each well (final concentration 400 μM), and incubated at room temperature for an additional 5 min. Absorbance at 412 nm was determined by a Biotek HT Synergy plate reader (Winooski, Vt.).

[4] = DTNB assay for reactivity with free thiols, cysteine; type: physicochemical; conditions: 0.25 mM cysteine, 30 min at 37° C., pH 8.0
Procedure: as §4

Compound | IC50 [1] [µM] | IC50 [2] [µM] | DTNB Reactivity with Thiols - DTNB assay with Glutathione [3] | DTNB Reactivity with Thiols - DTNB assay with Cysteine [4]
C#CC(O)CCCCC (stereo not shown) [Compound 1-Octyn-3-ol, 1-Octyn-3-ol] | > 10 | > 10 | ND (DTNB ND - not detected at concentrations up to 2.5 mM) | Reactive
CCCCCC(=O)/C=C(\NCCC)C(F)(F)Br [JAB-4-165] | > 10 | > 10 | ND (DTNB ND - not detected at concentrations up to 2.5 mM) | ND (DTNB ND - not detected at concentrations up to 2.5 mM)
OC(C#CC(F)(F)Br)CCCCc1ccccc1 (stereo not shown) [MNR-1-129] | > 10 | > 10 | – | –
CCCCCCCCCC(O)C#CC(F)(F)Br (stereo not shown) [MNR-3-69] | 1 | 2.8 | – | –
CCCCCC(C)(O)C#CC(F)(F)Br (stereo not shown) [MNR-1-118] | 8.2 | > 10 | ND (DTNB ND - not detected at concentrations up to 2.5 mM) | ND (DTNB ND - not detected at concentrations up to 2.5 mM)
CC/C=C\CCC(O)C#CC(F)(F)Br (stereo not shown) [JAB-4-169] | 0.4 | 3.8 | ND (DTNB ND - not detected at concentrations up to 2.5 mM) | ND (DTNB ND - not detected at concentrations up to 2.5 mM)
CCCCCC(O)C#CC(F)(F)F (stereo not shown) [JAB-4-156] | > 10 | > 10 | ND (DTNB ND - not detected at concentrations up to 2.5 mM) | ND (DTNB ND - not detected at concentrations up to 2.5 mM)
CCCCCCC#CC(F)(F)Br [JAB-4-158] | 2.1 | > 10 | ND (DTNB ND - not detected at concentrations up to 2.5 mM) | ND (DTNB ND - not detected at concentrations up to 2.5 mM)
CCCCCCCCCCCC(O)C#CC(F)(F)Br (stereo not shown) [MNR-3-89] | 1.1 | 2.7 | – | –
CCCCCC(O)C#CCBr (stereo not shown) [MNR-3-92] | 7.1 | 8.7 | Reactive | Reactive
OC(C#CC(F)(F)Br)C1CCCCC1 (stereo not shown) [MNR-3-90] | 0.9 | 3.1 | – | –
OC(C#CC(F)(F)Br)CCc1ccccc1 (stereo not shown) [MNR-3-82] | 1.2 | 2.8 | – | –
CCCCCC(Cl)C#CC(F)(F)Br (stereo not shown) [MNR-1-102] | > 10 | > 10 | Reactive | ND (DTNB ND - not detected at concentrations up to 2.5 mM)
CC(C)C(O)C#CC(F)(F)Br (stereo not shown) [MNR-3-86] | > 10 | > 10 | – | –
CCCCCC(C#CC(F)(F)Br)OC (stereo not shown) [JAB-4-155] | 3.5 | > 10 | ND (DTNB ND - not detected at concentrations up to 2.5 mM) | ND (DTNB ND - not detected at concentrations up to 2.5 mM)
CCCCCC(O)C#CC(F)(F)Oc1ccc(F)cc1 (stereo not shown) [MNR-1-110] | > 10 | > 10 | ND (DTNB ND - not detected at concentrations up to 2.5 mM) | ND (DTNB ND - not detected at concentrations up to 2.5 mM)

Compound | IC50 [1] [µM] | IC50 [2] [µM] | DTNB Reactivity with Thiols - DTNB assay with Glutathione [3] | DTNB Reactivity with Thiols - DTNB assay with Cysteine [4]
CCCCC[C@@H](O)C#CC(F)(F)Br [MNR-3-38] | 0.4 | 1.5 | ND (DTNB ND - not detected at concentrations up to 2.5 mM) | ND (DTNB ND - not detected at concentrations up to 2.5 mM)
CCCC(O)C#CC(F)(F)Br (stereo not shown) [MNR-1-122] | 0.8 | 1.1 | ND (DTNB ND - not detected at concentrations up to 2.5 mM) | ND (DTNB ND - not detected at concentrations up to 2.5 mM)
O=C(CCCCC1SCC2NC(=O)NC21)NCCOCCOCCOCCOCCC(=O)NCCCCCCCCCC(O)C#CC(F)(F)Br (stereo not shown) [MNR-2-6] | > 10 | > 10 | – | –
CCCCCCCC(O)C#CC(F)(F)Br (stereo not shown) [MNR-3-94] | 0.9 | 2.7 | – | –
CCCCCC(C#CC(F)(F)Br)OC(C)=O (stereo not shown) [MNR-3-43] | 0.9 | 5.4 | ND (DTNB ND - not detected at concentrations up to 2.5 mM) | ND (DTNB ND - not detected at concentrations up to 2.5 mM)
CCCCC[C@H](O)C#CC(F)(F)Br [MNR-3-41] | 4.8 | > 10 | – | –
OC(C#CC(F)(F)Br)c1ccccc1 (stereo not shown) [MNR-3-93] | > 10 | > 10 | – | –
CCCCCC(C#CC(F)(F)Br)OC1CCCCO1 (stereo not shown) [MNR-3-27] | 1.9 | 3.7 | – | –
CCCCCC(=O)C#CC(F)(F)Br [JAB-4-163] | > 10 | > 10 | ND (DTNB ND - not detected at concentrations up to 2.5 mM) | ND (DTNB ND - not detected at concentrations up to 2.5 mM)
CCCC(C)C(O)C#CC(F)(F)Br (stereo not shown) [MNR-1-117] | 1.9 | 7.9 | ND (DTNB ND - not detected at concentrations up to 2.5 mM) | ND (DTNB ND - not detected at concentrations up to 2.5 mM)
CCCCCC(O)C#CC(F)F (stereo not shown) [MNR-3-91] | > 10 | > 10 | – | –
CCCCCC(O)C#CC(F)(F)SCc1ccccc1 (stereo not shown) [MNR-1-111] | > 10 | > 10 | ND (DTNB ND - not detected at concentrations up to 2.5 mM) | ND (DTNB ND - not detected at concentrations up to 2.5 mM)
CC(C)(C)C(O)C#CC(F)(F)Br (stereo not shown) [MNR-3-85] | > 10 | > 10 | – | –
CCC#CCCCCCCCC(O)C#CC(F)(F)Br (stereo not shown) [MNR-1-147] | 1.1 | 4 | – | –
CC(C)(C)OC(=O)NCCCCCCCCCC(O)C#CC(F)(F)Br (stereo not shown) [MNR-1-186] | > 10 | > 10 | – | –
